Numbers after ± are expanded uncertainties.
Conditions: Liquid

Compound	vapor or sublimation pressure (283.15 K)	vapor or sublimation pressure (288.15 K)	vapor or sublimation pressure (293.15 K)	vapor or sublimation pressure (298.15 K)	vapor or sublimation pressure (303.15 K)	vapor or sublimation pressure (308.15 K)	vapor or sublimation pressure (313.15 K)	vapor or sublimation pressure (318.15 K)	vapor or sublimation pressure (323.15 K)
ClC(Cl)C(Cl)Cl [1,1,2,2-tetrachloroethane]	0.263 ± 0.008 kPa	0.373 ± 0.01 kPa	0.521 ± 0.013 kPa	0.711 ± 0.017 kPa	0.98 ± 0.022 kPa	1.289 ± 0.028 kPa	1.701 ± 0.027 kPa	2.236 ± 0.029 kPa	2.86 ± 0.032 kPa
ClC(Cl)=C(Cl)Cl [tetrachloroethene]	1.023 ± 0.023 kPa	1.4 ± 0.026 kPa	1.861 ± 0.028 kPa	2.462 ± 0.03 kPa	3.205 ± 0.033 kPa	4.117 ± 0.037 kPa	5.253 ± 0.041 kPa	6.621 ± 0.047 kPa	8.286 ± 0.054 kPa
c1ccccc1 [benzene]	6.078 ± 0.045 kPa	7.849 ± 0.052 kPa	10.03 ± 0.061 kPa	12.69 ± 0.072 kPa	15.93 ± 0.085 kPa	19.81 ± 0.1 kPa	24.4 ± 0.12 kPa	29.85 ± 0.14 kPa	36.24 ± 0.17 kPa
